Assay results reported in article PMC3826796 (European journal of cancer (Oxford, England : 1990), 2012).
Where two headings read alike, the source gives them in different places. Values belong to the molecule of their own block, whether it stands above or below them.

Assays:
[1] = cited from earlier work
[2] = background statement, ref not given; cited from earlier work
[3] = Plasma pharmacokinetics of SF1126 and hydrolysis products SF1101 and SF1174; assay type: in vivo, human; details: human, in vivo
advanced malignancies = details: cited from earlier work
Phospho-AKT (T308) = details: CLL cells from a subset of patients, post-dose; cited from earlier work

SMILES: COc1ccc(-c2ccc3ncc4c(c3c2)n(-c2ccc(N3CCNCC3)c(C(F)(F)F)c2)c(=O)n4C)cn1 [BGT226]
AE profile ([1]; phase I, advanced solid tumours): nausea, vomiting and diarrhoea

Concentrations reached (Cmax versus dose) [3]: 20 to 30 µM
half-life ([3]; iv): 1 to 2.4 h
SMILES: O=c1cc(N2CCOCC2)oc2c(-c3ccccc3)cccc12 [SF1101, reference compound]
half-life [2]: short half-life

SMILES: CC[C@H](Nc1ncnc2[nH]cnc12)c1nc2cccc(F)c2c(=O)n1-c1ccccc1 [CAL-101]
Patients with durable responses of >6 months (advanced malignancies; refractory non-Hodgkin's lymphoma and chronic lymphocytic leukaemia): 5
Reduction of Phospho-AKT (T308) (Phospho-AKT (T308)): > 90%

SMILES: C=CCN(/C=C1/C(=O)O[C@H](COC)[C@@]2(C)C1=C(O)C(=O)C1=C2[C@H](OC(C)=O)C[C@]2(C)C(=O)CC[C@@H]12)CC=C [PX-866]
Grade 3 adverse event [1]: 1 reversible grade 3 transminitis

SMILES: Nc1cc(C(F)(F)F)c(-c2cc(N3CCOCC3)nc(N3CCOCC3)n2)cn1 [BKM120]
Patients on study for P8 months (advanced malignancies; phase I): 7
PR (number of patients) (advanced malignancies; phase I, triple negative breast cancer (KRAS mutated) patient): 1
AEs ([1]; phase I): grade 3 rash, abdominal pain and mood alterations
Events observed at DLT ([1]; phase I): Two grade 4 hyperglycaemic events

SMILES: CCn1c(=O)c(-c2cc[nH]n2)cc2c(C)nc(N)nc21 [XL765]
Patients on study for ≥16 weeks (advanced malignancies; Phase I, oral): 11
Patients on study for ≥24 weeks (advanced malignancies; Phase I, oral): 7

SMILES: CS(=O)(=O)N1CCN(Cc2cc3nc(-c4cccc5[nH]ncc45)nc(N4CCOCC4)c3s2)CC1 [GDC-0941]
Patients with anti-tumour activity (advanced malignancies; phase I, relapsed/refractory solid tumours): 3 of 19

SMILES: COc1ccc(Cl)c(Nc2nc3ccccc3nc2NS(=O)(=O)c2cccc(NC(=O)C(C)(C)N)c2)c1 [XL147]
Partial response (advanced malignancies): PR in a NSCLC patient with a confirmed PI3K3CA mutation
Major DLT [1]: skin rash
